Reference: patent US10336735B2, “Small molecule inhibitors of fibrosis” (THE CALIFORNIA INSTITUTE FOR BIOMEDICAL RESEARCH, priority 2014, dated 2019)

System: primary human lung fibroblasts and primary rodent HSCs
Experiment: High content imaging assay (α-SMA staining, cell morphology) of fibroblast to myofibroblast transdifferentiation, confirmed by Western blot and RT-PCR
Conditions: Homo sapiens, Fibroblast; imaging and western based activity
Outline: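 Primary human lung fibroblasts and primary rodent HSCs were serum-starved and then TGF-β-treated to drive transdifferentiation in 384-well format, with SB-431542 as positive control. Readouts were α-SMA immunofluorescence and cell morphology by high-content imaging, confirmed by Western blot and RT-PCR in 4-day, 4-point dose-response assays; EC50 values are graded.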

For `CC[C@@H](C)n1ncn(-c2ccc(N3CCN(c4ccc(OC[C@@H]5CO[C@@](Cn6nccn6)(c6ccccc6)O5)cc4)CC3)cc2)c1=O` [Compound 179, 4-(4-(4-(4-(((2S,4R)-2-((2H-1,2,3-triazol-2-yl)methyl)-2-phenyl-1,3-dioxolan-4-yl)methoxy)phenyl)piperazin-1-yl)phenyl)-(R)-1-sec-butyl-1H-1,2,4-triazol-5(4H)-one], which EC50 is on record?
Its EC50 is under 0.5 µM.

For `CCC(C)n1ncn(-c2ccc(N3CCN(c4ccc(OC[C@@H]5CO[C@@](Cn6cccn6)(c6cccc(Cl)c6)O5)cc4)CC3)cc2)c1=O` (stereo partly drawn) [Compound 82], which EC50 is on record?
Its EC50 is under 0.5 µM.

`CCC(C)n1ncn(-c2ccc(N3CCN(c4ccccc4OC[C@@H]4CO[C@@](Cn5nccn5)(c5ccc(Cl)cc5Cl)O4)CC3)cc2)c1=O` (stereo partly drawn) [Compound 79] was tested. Which EC50 did it give?
The EC50 was over 30 µM.
